PMC4999848 (Toxins, 2016)

Assays:
CES in S9 Liver = assay: CES activity on pNPA, liver S9 fraction
CES in S9 Intestine = assay: CES activity on pNPA, intestine S9 fraction
CES in Caco-2 cells = assay: CES activity on pNPA, Caco-2 cells
CES in HepG2 cells = assay: CES activity on pNPA, HepG2 cells
CES in S9 Kidney = assay: CES activity on pNPA, kidney S9 fraction
CES in A498 cells = assay: CES activity on pNPA, A498 cells
recombinant human CES2 = target: T1, recombinant human CES2 (Homo sapiens, UniProt O00748); assay: CES activity on pNPA, recombinant CES2; details: CES2, pNPA 1 mM
T1 sequence (O00748 27-559): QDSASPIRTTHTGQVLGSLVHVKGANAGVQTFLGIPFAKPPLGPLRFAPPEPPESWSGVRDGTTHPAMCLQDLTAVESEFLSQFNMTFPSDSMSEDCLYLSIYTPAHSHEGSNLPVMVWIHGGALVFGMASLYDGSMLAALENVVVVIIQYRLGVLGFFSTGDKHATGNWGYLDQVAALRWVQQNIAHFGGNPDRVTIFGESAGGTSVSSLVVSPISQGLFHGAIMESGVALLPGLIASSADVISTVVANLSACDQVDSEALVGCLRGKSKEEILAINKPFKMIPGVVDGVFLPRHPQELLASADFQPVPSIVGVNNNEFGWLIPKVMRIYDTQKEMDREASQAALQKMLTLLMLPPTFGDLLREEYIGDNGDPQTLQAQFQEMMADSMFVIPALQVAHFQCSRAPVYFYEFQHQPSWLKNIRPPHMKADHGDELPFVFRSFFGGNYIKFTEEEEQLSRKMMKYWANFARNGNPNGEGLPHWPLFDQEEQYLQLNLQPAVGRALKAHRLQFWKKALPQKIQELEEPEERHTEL

CES in T84 cells = assay: CES activity on pNPA, T84 cells
recombinant human CES1 = target: T2, recombinant human CES1 (Homo sapiens, UniProt P23141); assay: CES activity on pNPA, recombinant CES1
T2 sequence (P23141 18-567): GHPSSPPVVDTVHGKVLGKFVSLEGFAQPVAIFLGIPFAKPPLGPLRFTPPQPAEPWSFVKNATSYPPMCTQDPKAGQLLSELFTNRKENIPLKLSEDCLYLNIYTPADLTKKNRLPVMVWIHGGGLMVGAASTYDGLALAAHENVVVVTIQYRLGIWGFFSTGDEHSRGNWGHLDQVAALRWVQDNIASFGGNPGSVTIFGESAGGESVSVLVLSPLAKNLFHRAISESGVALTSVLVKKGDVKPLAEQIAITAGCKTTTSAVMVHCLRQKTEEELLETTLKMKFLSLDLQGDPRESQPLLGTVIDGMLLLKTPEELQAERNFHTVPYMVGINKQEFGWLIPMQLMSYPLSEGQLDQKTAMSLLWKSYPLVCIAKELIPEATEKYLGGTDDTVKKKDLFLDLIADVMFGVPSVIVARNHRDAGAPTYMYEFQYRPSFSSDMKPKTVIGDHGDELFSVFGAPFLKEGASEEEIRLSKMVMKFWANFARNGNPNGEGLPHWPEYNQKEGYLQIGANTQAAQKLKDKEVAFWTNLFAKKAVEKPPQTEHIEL

[1] = tested on: human cell lines (Caco-2, HepG2, T84, A498); assay: cells; format: in vitro ADME; details: read-out: % inhibition of deacetylation of 3/15ADON

## CC(=O)Oc1ccc([N+](=O)[O-])cc1 [pNPA, para-nitrophenyl acetate]
CES in S9 Liver; pNPA 1 mM, 37 °C
  Specific activity on pNPA, Without Benzil: 142 ± 4.6 nmol of pNPA hydrolyzed per minute and per mg of protein
CES in S9 Liver; pNPA 1 mM, benzil 100 μM
  Specific activity on pNPA, With Benzil: 21 ± 2.2 nmol of pNPA hydrolyzed per minute and per mg of protein
CES in S9 Intestine; pNPA 1 mM, 37 °C
  Specific activity on pNPA, Without Benzil: 55 ± 9.9 nmol of pNPA hydrolyzed per minute and per mg of protein
CES in S9 Intestine; pNPA 1 mM, benzil 100 μM
  Specific activity on pNPA, With Benzil: 8.3 ± 2.7 nmol of pNPA hydrolyzed per minute and per mg of protein
CES in Caco-2 cells; Caco-2, pNPA 1 mM, 37 °C
  Specific activity on pNPA, Without Benzil: 6.2 ± 1.8 nmol of pNPA hydrolyzed per minute and per mg of protein
CES in Caco-2 cells; Caco-2, pNPA 1 mM, benzil 100 μM
  Specific activity on pNPA, With Benzil: 1.1 ± 0.1 nmol of pNPA hydrolyzed per minute and per mg of protein
CES in HepG2 cells; HepG2, pNPA 1 mM, 37 °C
  Specific activity on pNPA, Without Benzil: 15.7 ± 1.1 nmol of pNPA hydrolyzed per minute and per mg of protein
CES in HepG2 cells; HepG2, pNPA 1 mM, benzil 100 μM
  Specific activity on pNPA, With Benzil: 2.1 ± 0.1 nmol of pNPA hydrolyzed per minute and per mg of protein
CES in S9 Kidney; pNPA 1 mM, 37 °C
  Specific activity on pNPA, Without Benzil: 69 ± 7.6 nmol of pNPA hydrolyzed per minute and per mg of protein
CES in S9 Kidney; pNPA 1 mM, benzil 100 μM
  Specific activity on pNPA, With Benzil: 8.1 ± 1.4 nmol of pNPA hydrolyzed per minute and per mg of protein
CES in A498 cells; A498, pNPA 1 mM, benzil 100 μM
  Specific activity on pNPA, With Benzil: 1.1 ± 0.1 nmol of pNPA hydrolyzed per minute and per mg of protein
Recombinant human CES2; 37 °C
  Specific activity on pNPA, Without Benzil: 5671 ± 207 nmol of pNPA hydrolyzed per minute and per mg of protein
Recombinant human CES2; benzil 100 μM
  Specific activity on pNPA, With Benzil: 214 ± 43 nmol of pNPA hydrolyzed per minute and per mg of protein
CES in T84 cells; T84, pNPA 1 mM, 37 °C
  Specific activity on pNPA, Without Benzil: 6.6 ± 0.7 nmol of pNPA hydrolyzed per minute and per mg of protein
CES in T84 cells; T84, pNPA 1 mM, benzil 100 μM
  Specific activity on pNPA, With Benzil: 0.9 ± 0.2 nmol of pNPA hydrolyzed per minute and per mg of protein
Recombinant human CES1; CES1, pNPA 1 mM, 37 °C
  Specific activity on pNPA, Without Benzil: 4965 ± 197 nmol of pNPA hydrolyzed per minute and per mg of protein
Recombinant human CES1; CES1, pNPA 1 mM, benzil 100 μM
  Specific activity on pNPA, With Benzil: 167 ± 10 nmol of pNPA hydrolyzed per minute and per mg of protein

## O=C(C(=O)c1ccccc1)c1ccccc1 [benzil]
[1]
  inhibition at 100 µM: 10 to 20%
CES in S9 Liver; benzil 100 μM
  % of Inhibition of pNPA deacetylation: 85 ± 14%
CES in S9 Intestine; benzil 100 μM
  % of Inhibition of pNPA deacetylation: 84 ± 15%
CES in Caco-2 cells; Caco-2, benzil 100 μM
  % of Inhibition of pNPA deacetylation: 83 ± 16%
CES in HepG2 cells; HepG2, benzil 100 μM
  % of Inhibition of pNPA deacetylation: 87 ± 12%
CES in S9 Kidney; benzil 100 μM
  % of Inhibition of pNPA deacetylation: 88 ± 11%
CES in A498 cells; A498, benzil 100 μM
  % of Inhibition of pNPA deacetylation: 83 ± 16%
CES in T84 cells; T84, benzil 100 μM
  % of Inhibition of pNPA deacetylation: 85 ± 14%
Recombinant human CES1; read-out: % of Inhibition of pNPA deacetylation
  inhibition at 100 µM: 96 ± 3.3%
